Laboratory results from article PMC4147587, “Synthesis and Analgesic Effects of μ-TRTX-Hhn1b on Models of Inflammatory and Neuropathic Pain” (Toxins, 2014).
pIC50: −log10 of the molar value. Like-named read-outs stand apart in the source and are kept apart here. No end group written: not given here.

Experiments:
[1] = tested on: paroxysmal extreme pain disorder (PEPD); conditions: patients; cited from earlier work
Text: (§1) Voltage-gated sodium channels (VGSCs) are essential for the initiation and propagation of action potentials in excitable tissues, such as nerves and muscles. Considerable in vivo and in vitro studies indicate that VGSCs play a key role in neuropathic and inflammatory pain, which begins with the aberrant firing of action potential bursts in damaged neuronal tissue. Of the nine subtypes of VGSCs identified to date and designated as Nav1.1–1.9, Nav1.3, 1.7, 1.8 and 1.9 play specialized roles in nociceptive pathways and are considered ideal targets for the development of analgesi ...

[2] = tested on: inherited erythromelalgia (IEM); conditions: patients; cited from earlier work
Text: as §1

[3] = tested on: motor coordination of rats (latency to fall off the rotarod); format: in vivo, rat (Sprague-Dawley); conditions: rat, in vivo
Procedure: Motor activity was assessed using a rotarod apparatus for rats (Coulbourn Instruments, Lehigh Valley, PA, USA). The rotarod might be set at any speed from 0 to 50 rpm. For motor coordination assessment, rats were trained for 2 days by walking them each day on an accelerating rotarod from 4 to 40 rpm for 10 min. […] Motor performance was considered as the latency to fall off the rotarod apparatus determined from the mean time in three trials for each rat at each time.

[4] = tested on: rat models of neuropathic pain; conditions: 37.5 mg/kg i.p., cited from earlier work
Text: A total of 30 rats with mechanical allodynia were divided into five groups randomly.

[5] = tested on: formalin-induced pain behaviors in rats; experiment: formalin-induced inflammatory rat model; format: in vivo, rat (Sprague-Dawley); conditions: rat, in vivo, ip
Procedure: Acute and chronic nociceptive responses were measured using the rat paw formalin test as descried by Dubission and modified by Malmberg. Adult Sprague-Dawley rats (male, weighing 180–220 g) were used for this behavioral test. During the test, each rat was placed into open polyvinyl cages (30 cm × 40 cm × 30 cm) and at least 30 min before administration of the toxin. All agents were administered 30 min prior to s.c. intraplantar formalin injection. A volume of 50 μL formalin (5%) solution was used as previously described and injected into the plantar surface of one hind paw. Lifting, favoring, licking, shaking and flinching of the injected paw were recorded as nociceptive responses. The total time of the nociceptive response was measured every 5 min and […] (mean ± SEM). Recording of nociceptive behavior commenced immediately after formalin injection and was continued for 40 min.

[6] = tested on: Nav1.2, Nav1.3, Nav1.4, Nav1.5, Nav1.7; conditions: native toxin; ref 27 (unpublished work, 2014); cited from earlier work
Nav1.7 = conditions: native toxin; ref 27 (unpublished work, 2014); cited from earlier work
Text: μ-TRTX-Hhn1b (HNTX-IV) is a 35-residue peptide from tarantula Ornithoctonus hainana (Haplopelma hainanum) venom. The amino acid sequence is […]. The peptide amidated at its C-terminal has a high proportion of basic residues and is crosslinked by three disulfide bonds.

human Nav1.7 = biological target: T1, human Nav1.7 (Homo sapiens, UniProt Q15858); experiment: whole-cell patch clamp, human Nav1.7 transiently expressed in HEK 293 cells; format: cell-based; conditions: comparison group printed as "native toxin group"
T1 construct: expressed in transfected cells; host or cells: HEK293 cells, transient transfection with Lipofectamine 2000
T1 sequence (Q15858 other isoform, or with tags, fused parts or gaps): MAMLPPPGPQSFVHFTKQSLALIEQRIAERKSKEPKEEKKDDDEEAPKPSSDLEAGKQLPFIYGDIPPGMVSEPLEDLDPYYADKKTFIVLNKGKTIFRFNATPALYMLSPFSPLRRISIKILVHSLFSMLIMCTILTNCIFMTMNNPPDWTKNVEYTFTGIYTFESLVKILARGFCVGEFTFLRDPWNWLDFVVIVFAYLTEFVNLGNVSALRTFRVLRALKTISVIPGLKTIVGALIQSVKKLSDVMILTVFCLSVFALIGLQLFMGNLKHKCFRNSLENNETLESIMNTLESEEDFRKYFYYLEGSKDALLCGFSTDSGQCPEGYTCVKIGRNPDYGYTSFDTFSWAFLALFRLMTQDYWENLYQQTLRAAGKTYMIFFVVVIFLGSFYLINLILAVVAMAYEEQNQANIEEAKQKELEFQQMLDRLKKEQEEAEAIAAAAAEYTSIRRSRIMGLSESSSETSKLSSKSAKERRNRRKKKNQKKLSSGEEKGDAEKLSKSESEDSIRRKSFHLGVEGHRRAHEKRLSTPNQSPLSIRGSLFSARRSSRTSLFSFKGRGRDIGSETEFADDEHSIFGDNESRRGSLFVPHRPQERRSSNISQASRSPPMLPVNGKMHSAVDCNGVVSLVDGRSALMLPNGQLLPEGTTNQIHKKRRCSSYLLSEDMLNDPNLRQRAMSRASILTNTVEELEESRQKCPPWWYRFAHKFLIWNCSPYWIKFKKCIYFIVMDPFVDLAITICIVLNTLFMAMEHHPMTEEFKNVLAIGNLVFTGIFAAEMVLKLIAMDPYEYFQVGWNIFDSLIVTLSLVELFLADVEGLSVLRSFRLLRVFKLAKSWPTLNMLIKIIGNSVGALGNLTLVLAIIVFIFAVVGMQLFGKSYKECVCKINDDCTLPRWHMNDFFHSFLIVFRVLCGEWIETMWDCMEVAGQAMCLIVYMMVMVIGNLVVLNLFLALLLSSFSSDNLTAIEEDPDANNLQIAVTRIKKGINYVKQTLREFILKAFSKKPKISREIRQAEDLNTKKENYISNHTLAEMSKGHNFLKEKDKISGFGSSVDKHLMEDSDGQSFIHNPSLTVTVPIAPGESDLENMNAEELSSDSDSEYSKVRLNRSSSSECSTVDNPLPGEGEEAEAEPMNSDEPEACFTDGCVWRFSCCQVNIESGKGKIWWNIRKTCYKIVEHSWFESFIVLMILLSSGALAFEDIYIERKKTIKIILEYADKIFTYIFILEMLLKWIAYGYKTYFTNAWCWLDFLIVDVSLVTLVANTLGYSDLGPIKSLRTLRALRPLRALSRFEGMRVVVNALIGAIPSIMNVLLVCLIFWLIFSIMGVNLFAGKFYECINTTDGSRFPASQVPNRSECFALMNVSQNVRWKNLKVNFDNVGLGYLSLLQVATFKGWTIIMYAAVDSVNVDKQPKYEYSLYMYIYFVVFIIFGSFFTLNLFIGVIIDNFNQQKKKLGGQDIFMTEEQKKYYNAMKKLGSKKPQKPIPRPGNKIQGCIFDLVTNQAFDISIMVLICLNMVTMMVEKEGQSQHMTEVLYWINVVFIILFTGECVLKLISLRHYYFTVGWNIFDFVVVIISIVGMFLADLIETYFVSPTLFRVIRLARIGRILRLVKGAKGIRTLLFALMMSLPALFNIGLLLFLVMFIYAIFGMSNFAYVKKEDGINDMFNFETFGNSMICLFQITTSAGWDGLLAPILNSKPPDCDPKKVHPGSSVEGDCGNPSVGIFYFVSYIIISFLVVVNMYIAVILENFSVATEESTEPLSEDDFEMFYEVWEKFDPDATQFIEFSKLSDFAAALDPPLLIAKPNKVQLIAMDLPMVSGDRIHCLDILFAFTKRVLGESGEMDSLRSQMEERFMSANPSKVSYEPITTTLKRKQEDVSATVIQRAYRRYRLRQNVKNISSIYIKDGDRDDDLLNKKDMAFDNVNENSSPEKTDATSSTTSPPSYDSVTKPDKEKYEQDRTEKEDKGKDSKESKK
T1 sequence (Q07699 19-218, further chain): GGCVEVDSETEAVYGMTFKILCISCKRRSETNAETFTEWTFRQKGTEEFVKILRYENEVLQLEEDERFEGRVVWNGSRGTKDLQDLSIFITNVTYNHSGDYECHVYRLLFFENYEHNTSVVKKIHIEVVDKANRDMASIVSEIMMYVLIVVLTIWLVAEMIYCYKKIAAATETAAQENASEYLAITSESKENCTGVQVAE
Text: Figure 2 Inhibitory effect of synthetic μ-TRTX-Hhn1b on Nav1.7 expressed on HEK 293 cells. […] (B) The inhibition of μ-TRTX-Hhn1b on Nav1.7 was dose-dependent. […] Data are plotted as a fraction of the maximum conductance. The voltage-dependence of steady-state inactivation was estimated using a standard double-pulse protocol, in which a 20-ms depolarizing test potential of 0 mV followed a 500-ms prepulse at potentials that ranged from −130 to −10 mV with a 10-mV increment. Cells were held at −100 mV.
A human Nav1.7 channel plasmid (accession No. NM_002977) and a plasmid for green ﬂuorescent protein were transiently transfected into human embryonic kidney 293 (HEK293) cells using Lipofectamine 2000 (Invitrogen, Carlsbad, CA, USA) according to the manufacturer’s instructions. HEK293 cells were grown under standard tissue culture conditions (5% CO2; 37 °C) in DMEM supplemented with 10% FBS. The β1 subunit was cotransfected with the Nav1.7 channel to increase the current density. Cells with green ﬂuorescence were selected for whole-cell patch-clamp recording at 36–72 h after transfection. Patch-clamp experiments were performed at room temperature. Suction pipettes (2.0–3.0 MΩ) were made from borosilicate glass capillary tubes using a two-step vertical micropipette puller. The pipette solution contained (in mM): CsCl 145, MgCl2∙6H2O 4, HEPES 10, EGTA 10, glucose 10, ATP 2 (pH 7.2). The external solution contained (in mM): NaCl 145, KCl 2.5, CaCl2 1.5, MgCl2.6H2O 1.2, HEPES 10, glucose 10 (pH 7.4). Experimental data were collected and analyzed using the program Pulse/Pulsefit 8.0 (HEKA Electronics, Pfalz, Germany). Macroscopic sodium currents were filtered at 5 kHz and digitized at 20 kHz with an EPC-9 patch-clamp amplifier (HEKA Electronics, Pfalz, Germany). Series resistance was kept near 5 MΩ and compensated to 65%–70%; linear capacitative and leakage currents were digitally subtracted using the P/4 protocol.

In the case of `NC(=O)N1c2ccccc2C=Cc2ccccc21` [carbamazepine], the “control of PEPD” value [1] is listed as “well controlled”.
In the case of `CCN(CC)CC(=O)Nc1c(C)cccc1C` [lidocaine], the “treatment of IEM” value [2] is listed as “very ineffective”.
For `Cc1cccc(C)c1OCC(C)N` (centres unmarked) [mexiletine], the “treatment of IEM” value [2] is given as “very ineffective”, the “latency to fall off the rotarod” value [3] is given as “significant latency reduction” and the “withdrawal threshold to von Frey hair” value ([4]; 15 min after injection) is given as “significantly increased the withdrawal threshold”. For the same compound, the “withdrawal threshold to von Frey hair” value ([4]; 45 min after injection) was “returned to a level non-significantly different from the baseline and vehicle”.
For `CN1CC[C@]23c4c5ccc(O)c4O[C@H]2[C@@H](O)C=C[C@H]3[C@H]1C5` [morphine, reference compound], the pain score [5] was 225.0 ± 55.8 s.
In the case of “ECLGFGKGCNPSNDQCCKSSNLVCSRKHRWCKYEI (disulfide (positions not given here)) [native μ-TRTX-Hhn1b, reference compound]”, the subtype preference [6] is given as “preferentially inhibited Nav1.2, Nav1.3 and Nav1.7 compared with Nav1.4 and Nav1.5; Nav1.7 was the most sensitive channel”, the pIC50 (Nav1.7) is given as about 7.68 and the “half-activation voltage of Nav1.7” value (human Nav1.7) is given as −20.5 ± 0.2 mV. The “half-inactivation voltage of Nav1.7” value (human Nav1.7) was −42.6 ± 0.2 mV.
